# Data as given in PMC12873548, “D-amino acid substitution and cyclization enhance the stability and antimicrobial activity of arginine-rich peptides” (Microbiology, 2026).
# Residues, ends and D or L forms follow the SMILES beside them.
# Columns and labels:
# S. aureus = assay: Intracellular ROS, DCFH-DA; type: cell-based, Staphylococcus aureus; details: peptides at MIC, 1/2× MIC, 1/4× MIC, 4 h, 37 °C
# Protocol: Total reactive oxygen species (ROS) was measured using an oxidation-sensitive fluorescent dye, 2′,7′-dichlorodihydrofluorescein diacetate (DCFH-DA). For this assay, E. coli and S. aureus cultures were adjusted to an OD600 of 0.3 in MH broth and exposed to peptides at MIC, 1/2× MIC and 1/4× MIC, or to positive control (5 mM H2O2) for 4 h at 37 °C. Cells were centrifuged at 4,000 r.p.m. for 10 min at 4 °C and resuspended in PBS containing 10 µM DCFH-DA. The suspension was incubated under the same conditions for 30 min. Finally, cells were washed twice with PBS, and 150 µl aliquots were transferred to 96-well plates. Oxidized DCF products were detected using a Tecan Spark® microplate reader with excitation at 485 nm and emission at 530 nm. Additionally, 10 µl of E. coli cells incubated with D-R4F4 at MIC, 1/2×MIC and 1/4×MIC was collected for imaging using an All-in-One Fluorescence Microscope (Keyence, Japan).
# S. aureus ATCC 12600 = assay: Membrane integrity, PI uptake; type: cell-based, Staphylococcus aureus; details: S. aureus ATCC 12600, 5 µg ml−1 PI, 1 h
# Protocol: (§1) Propidium iodide (PI) uptake was used to assess the permeabilization of the bacterial membrane upon incubation with peptides. E. coli and S. aureus cells, adjusted to an OD600 of 0.5, were placed into a 96-well plate containing 5 mM HEPES buffer (pH 7.4, supplemented with 5 mM glucose) and incubated with 5 µg ml^−1 PI for 15 min. Afterwards, different peptide concentrations were added, and PI uptake was rapidly measured every 10 min over a 1 h period using a Tecan Spark® microplate reader (λex=515 nm, λem=620 nm).
# E. coli (O157:H7) = type: cell-based, Escherichia coli
# Protocol: (§2) The MIC of arginine-based peptides was assessed using the microbroth dilution approach. Our in vitro screening included a panel of Gram-negative bacteria, Escherichia coli (ATCC 25922 and enterohaemorrhagic O157:H7) and Pseudomonas aeruginosa (PA01 and the drug-resistant strain NCTC 13437), and Gram-positive bacteria (Staphylococcus aureus ATCC 12600). Five-millilitre overnight cultures in Lysogeny broth, prepared from single isolated colonies, were diluted to 5×10^6 c.f.u. ml^−1 mid-log phase in Mueller–Hinton (MH) broth. Next, peptide concentrations (0 to 1 mM) were serially diluted twofold in 96-well plates and incubated overnight at 37 °C with the tested bacterial strains. In each case, the MIC was determined as the lowest peptide concentration at which no detectable bacterial growth was observed, employing an absorbance-based assay using a Tecan Spark® multimode plate reader. Subsequently, 10 µl aliquots from each peptide dilution were transferred to MH agar (1.5%) plates to determine the minimum bactericidal concentration (MBC) which was assessed by establishing at which concentration no visible growth of bacteria (assessed via colony formation) on the plate was observed.
# P. aeruginosa (PA01) = assay: Inhibition of biofilm formation, crystal violet; type: cell-based, Pseudomonas aeruginosa; details: P. aeruginosa PA01, M63 medium, peptides 0 to 500 µM, 24 h, 0.1% CV
# Protocol: Arginine-rich peptides were evaluated for their ability to inhibit biofilm formation of P. aeruginosa (PA01) cells. To assess this, the procedure described in the ‘Antibacterial assessment’ section for determining the MIC was adapted using M63 media (supplemented with 1 mM MgSO4 and 23 µM L-arginine). After 24 h of exposure to peptides (0 to 1 mM), flat-bottom 96-well plates were washed twice with PBS to remove any non-adherent cells. The remaining biofilm was stained with 0.1% crystal violet (CV) for 30 min at room temperature. Subsequently, the plates were washed three times to remove excess dye and left to dry overnight at room temperature. The following day, stained biofilms were solubilized using 30% glacial acetic acid, and absorbance was measured at 550 nm using a microplate reader. Biofilm inhibition was expressed as a percentage relative to control bacterial cells treated with PBS.
# [1] = test system: Gram-positive and Gram-negative bacteria; type: cell-based; details: span of MIC and MBC against both Gram-positive and Gram-negative bacteria, Table 2
# Protocol: as §2
# E. coli ATCC 25922 = assay: Membrane integrity, PI uptake; type: cell-based, Escherichia coli; details: E. coli ATCC 25922, 5 µg ml−1 PI, 1 h
# Protocol: as §1
compound,measurement,setting,value
N=C(N)NCCC[C@@H]1NC(=O)[C@H](CCCNC(=N)N)NC(=O)[C@H](CCCNC(=N)N)NC(=O)[C@H](Cc2ccccc2)NC(=O)[C@H](Cc2ccccc2)NC(=O)[C@H](Cc2ccccc2)NC(=O)[C@H](Cc2ccccc2)NC(=O)[C@H](CCCNC(=N)N)NC1=O [CP-R4F4] (cyclo(RRRRFFFF)),Intracellular ROS levels,S. aureus,highest modulation of ROS levels
same,"PI uptake, membrane integrity",S. aureus ATCC 12600,membrane-disruptive activity
same,MBC,"E. coli (O157:H7); 10 µl aliquots plated on MH agar, no visible colonies",62.5 µM
same,MIC,"E. coli (O157:H7); MH broth, 5×10^6 cells, 24 h, 37 °C, absorbance 600 nm, triplicate",31.25 µM
same,"Biofilm formation (biomass, crystal violet)",P. aeruginosa (PA01),lowest levels of biofilm formation at the lower concentrations
same,MIC and MBC values over all tested strains,[1],15.62 to 250 µM
same,"PI uptake, membrane integrity",E. coli ATCC 25922,membrane-disruptive activity
